Laboratory results reported in patent US20250090576A1, “METHODS FOR TREATING NONTUBERCULOUS MYCOBACTERIA DISEASES” (Microbion Corporation, priority 2022, published 2025).

What was measured:
[1] = test system: three clinical isolates of M. avium in macrophages; assay: Infected THP-1 macrophages, summary over strains; format: cell-based; conditions: three clinical isolates of M. avium incl. amikacin-resistant isolate
Method: (§1) THP-1 macrophages were differentiated with 50 ng/ml PMA for 24 hours, followed by 24 hours in media prior to infection. Differentiated THP-1 macrophages were either infected with M. avium strains or M. abscessus strains for 1 hour with an multiplicity of infection (MOI) of 5 or uninfected. Cells were washed twice, followed by 1 hour of antibiotic treatment with 200 μg/ml of amikacin to remove extracellular bacteria. After the antibiotic step, cells were washed once more and BisEDT (BIZ) or amikacin was added once to selected wells (see in vitro doses below).
(§2) The treatments included: vehicle, amikacin, Soluble BisEDT (S Biz), Insoluble BisEDT (I Biz), and amikacin+BisEDT. The time points for sample preparation were 72 h for M. abscessus strains and 4- and 7-days post infection for M. avium strains. At the indicated timepoints cell media was removed and replaced with 400 ul of 0.1% triton x-100 in H2O for lysis. Wells were pipetted 25 times to disrupt cells then diluted and plated for CFU enumeration.

[2] = test system: M. abscessus strains in THP-1 macrophages; assay: Infected THP-1 macrophages, summary over strains; format: cell-based; conditions: 3 days post-treatment
Method: as §1, §2

[3] = test system: CF patient strain 00133 in THP-1 macrophages; assay: Mycobacterial survival (CFU) in infected THP-1 macrophages; format: cell-based, M. avium; conditions: amikacin-resistant CF patient strain 00133; each of the BisEDT formulations; 4 and 7 days
Method: as §1, §2

[4] = test system: M. avium (MAH 104) in THP-1 macrophages; assay: TEM of infected THP-1 macrophages (mechanism of action); format: cell-based; conditions: 4 μg/ml insoluble BisEDT; 24 h and 48 h
Method: (§3) THP-1 macrophages were differentiated with 50 ng/ml PMA for 24 hours, followed by 24 hours in media prior to infection. Differentiated THP-1 macrophages were infected with M. avium or M. abscessus for 1 hour with a multiplicity of infection (MOI) of 10. Infected cells were washed twice, followed by 1 hour of antibiotic treatment with 200 μg/ml of amikacin to remove extracellular bacteria. After the antibiotic step, cells were washed once more and 4 μg/ml insoluble BisEDT (BIZ) was added to selected wells. The treatments included: (1) untreated, (2) untreated+infected with MAH 104, (3) untreated+infected with M. abscessus, (4) BIZ treated, (5) BIZ treated+infected with MAH 104, and (6) BIZ treated+infected with M. abscessus. The time points for sample preparation were 24 h and 48 h.p.i. Cells were not washed prior to transmission electron microscopy TEM sample preparation, to preserve any extracellular bacteria that may have been present. Cells were detached by treatment with 5 mM EDTA for […], quenched with 1×HBSS, and suspended in fixative buffer with 2.5% glutaraldehyde, 1% formaldehyde, and 0.1 M sodium cacodylate for 24 hours prior to submission to the electron microscopy facility for processing. Samples were sectioned, dehydrated, and visualized by a FEIT Titan 80-200 TEM/STEM microscope.

[5] = test system: M. abscessus in THP-1 macrophages; assay: as above; format: cell-based; conditions: 4 μg/ml insoluble BisEDT; 24 h and 48 h
Method: as §3

[6] = test system: M. abscessus isolates from murine lung homogenates; assay: MIC analysis of select bacterial isolates from murine lung homogenates; format: cell-based; conditions: isolates from treated mouse lungs
[7] = test system: M. abscessus strain 19977; assay: Chronic M. abscessus lung infection in SCID/Beige mice, inhalation treatment 28 days; format: in vivo; conditions: for CFU count in lung homogenates, effect in words: inhaled
Method: A total of sixty female SCID/Beige mice between 6-8 weeks of age were used. Mice were placed up to 4 animals per cage and allowed 1 week of acclimation prior to infection.
Inoculums of M. abscessus strain 19977 (MAB) used in this study were made from highly virulent frozen stocks with low passage numbers. Bacteria were allowed to grow to log phase after 4 days on 7H10 media agar plates at 37° C. Once confluent, inoculums were made by suspending bacteria at 10^9 in Hank's balanced salt solution (HBSS) as determined by optical density (O.D.) and further quantified by serial dilution to determine the CFU/mL of suspension. At this higher concentration of bacteria, only 20 μL of inoculum was necessary to deposit […] bacteria per mouse.
On the day of infection mice were anesthetized with isoflurane by the drop jar method. Mice were scruffed in a standard one-handed grip and the nose of the mouse is held of a tube containing gauze containing a small amount of isoflurane. Mice were monitored for breathing and once rapid breaths have slowed down initially the mouse is removed from direct anesthesia and 20 μL of bacterial suspension was deposited on the left nostril. The mice then slowly breath in the droplet. Each mouse was then held in hand until complete consciousness was obtained and then the mouse was replaced into its home cage. After infection was initiated, 3 weeks were allowed to pass in order to allow the bacteria to establish a chronic lung pathology for eventual treatment.
After establishing each infection, 12 mice were euthanized the day before treatment began to determine the baseline bacterial load. Mice were euthanized using CO2 in accordance with the recommendations of the Guide for the Care and Use of Laboratory Animals (NRC 2011). Lungs and spleens were collected and homogenized then serial diluted for CFU enumeration.
A nose-only inhalation exposure chamber from CH technologies was used for this experiment. Mice were split into four treatment groups, Vehicle (buffer containing no BisEDT), amikacin (100 μg/kg/day), BisEDT “low” (200 μg/kg/day), and BisEDT “high” (1000 μg/kg/day). Each treatment group consisted of 12 mice. Ten of these mice were used for CFU determination and two mice are used for histology/pathology/lung pharmacokinetics. Treatment was conducted 6 days a week over the course of 28 days total. To create the correct level of deposited dose of each drug tested, 10 mL of test article were made. Amikacin in HBSS at 20 mg/mL was made and stored at 4° C. until needed. […]
After 28 days of treatment with BisEDT, animals were euthanized by Co2 and secondary cardiac puncture to collect whole blood for quantitation of BisEDT concentration. […] CFUs were determined after serial dilution. […]

[8] = test system: M. abscessus from lung homogenates; assay: Resistance plating of treated mouse lung homogenates on agar with 1 μg/ml BisEDT; format: cell-based; conditions: mice treated with BisEDT for 28 days
Method: Lung homogenates from the M. abscessus […] infection were thawed from frozen at 37° C. for 2 hours. To reduce the effect of the Dey-Engley deactivation buffer, mouse homogenates were diluted 1:10 in water before replating samples onto 7H10 agar plates containing 1 μg/ml BisEDT (MIC level). Once plated samples were incubated at 37° C. over 3 days and plate colonies were counted to determine CFUs of resistance.
Colony forming units were compared from the initial plating with no BisEDT in the agar plates; to replating on agar plates containing 1 μg/mL BisEDT.

[9] = Earlier 28-day tolerability work on rats; conditions: 28 days, doses as high as
[10] = test system: M. abscessus strain 19977 in THP-1 macrophages; assay: Mycobacterial survival (CFU) in infected THP-1 macrophages; format: cell-based; conditions: after 3 days, drugs at MIC
Method: as §1, §2

[11] = test system: M. abscessus cystic fibrosis patient strain 00703 in THP-1 macrophages; assay: as above; format: cell-based; conditions: CF patient strain 00703; after 3 days; drugs at MIC
Method: as §1, §2

[12] = test system: M. abscessus cystic fibrosis patient strain 01715 in THP-1 macrophages; assay: as above; format: cell-based; conditions: CF patient strain 01715; after 3 days; drugs at MIC
Method: as §1, §2

C1C[S][Bi]([S]CC[S][Bi]2[S]CC[S]2)[S]1 [BisEDT, bismuth-1,2-ethanedithiol]
effect in infected macrophages, in words [1]: bactericidal | effect in infected macrophages, in words [2]: bactericidal by itself | mycobacterial survival (CFU) in THP-1 macrophages, in words [3]: bacteriostatic effect | TEM observation on mycobacteria cell wall [4]: loss of the integrity of the polar region initially, and the whole cell wall in a more advanced stage | TEM observation on mycobacteria cell wall [5]: loss of the integrity of the polar region initially, and the whole cell wall in a more advanced stage | MIC of select isolates, in words [6]: did not show a change in resistance | lung CFU response, in words ([7]; 200 and 1000 μg/kg/day inhaled): dose-dependent response | tolerability in infected mice ([7]; 200 and 1000 μg/kg/day inhaled, mice responsive, normal weight range): well tolerated | CFU count in lung homogenates, effect in words ([7]; BisEDT high, 1000 μg/kg): bactericidal | CFU count in lung homogenates, effect in words ([7]; BisEDT low, 200 μg/kg): bacteriostatic effect | development of resistance, in words [8]: little development of resistance | dose with high tolerability, without adverse effects [9]: 59 µg/kg/day | mycobacterial survival (CFU, bacterial load) in THP-1 macrophages, in words [10]: reduced bacterial loads in THP-1 cells | mycobacterial survival (CFU, bacterial load) in THP-1 macrophages, in words [11]: greatly reduced bacterial load in macrophages | mycobacterial survival (CFU, bacterial load) in THP-1 macrophages, in words [12]: greatly reduced bacterial load in macrophages
